Experimental data taken from patent US10487056B2, “Small molecule androgen receptor inhibitors and methods of use thereof” (GEORGETOWN UNIVERSITY, priority 2015, dated 2019).

Assays:
Assay type in all cases: cell-based
AR [1] = assay: Immunofluorescence staining of AR and PSA in VCaP-MDVR cells; settings: DHT 1 nM, MDV3100 10 μM or SH-I-125 1 μM, 24 hours
Method: AR and PSA expression levels were assessed.
Immunofluorescence staining was performed as described in Amin et al., Mol. Cancer Ther., 13:341-52 (2014).

AR [2] = target: T1, AR (Homo sapiens, UniProt P10275); assay: VCaP-ARE-luc androgen-response element luciferase reporter assay; settings: DHT 1 nM, 24 hours
T1 construct: Androgen-dependent VCaP cells were made to stably express an androgen-response element luciferase reporter (VCaP-ARE-luc); host or cells: VCaP / VCaP-ARE-luc
T1 sequence (P10275 1-920): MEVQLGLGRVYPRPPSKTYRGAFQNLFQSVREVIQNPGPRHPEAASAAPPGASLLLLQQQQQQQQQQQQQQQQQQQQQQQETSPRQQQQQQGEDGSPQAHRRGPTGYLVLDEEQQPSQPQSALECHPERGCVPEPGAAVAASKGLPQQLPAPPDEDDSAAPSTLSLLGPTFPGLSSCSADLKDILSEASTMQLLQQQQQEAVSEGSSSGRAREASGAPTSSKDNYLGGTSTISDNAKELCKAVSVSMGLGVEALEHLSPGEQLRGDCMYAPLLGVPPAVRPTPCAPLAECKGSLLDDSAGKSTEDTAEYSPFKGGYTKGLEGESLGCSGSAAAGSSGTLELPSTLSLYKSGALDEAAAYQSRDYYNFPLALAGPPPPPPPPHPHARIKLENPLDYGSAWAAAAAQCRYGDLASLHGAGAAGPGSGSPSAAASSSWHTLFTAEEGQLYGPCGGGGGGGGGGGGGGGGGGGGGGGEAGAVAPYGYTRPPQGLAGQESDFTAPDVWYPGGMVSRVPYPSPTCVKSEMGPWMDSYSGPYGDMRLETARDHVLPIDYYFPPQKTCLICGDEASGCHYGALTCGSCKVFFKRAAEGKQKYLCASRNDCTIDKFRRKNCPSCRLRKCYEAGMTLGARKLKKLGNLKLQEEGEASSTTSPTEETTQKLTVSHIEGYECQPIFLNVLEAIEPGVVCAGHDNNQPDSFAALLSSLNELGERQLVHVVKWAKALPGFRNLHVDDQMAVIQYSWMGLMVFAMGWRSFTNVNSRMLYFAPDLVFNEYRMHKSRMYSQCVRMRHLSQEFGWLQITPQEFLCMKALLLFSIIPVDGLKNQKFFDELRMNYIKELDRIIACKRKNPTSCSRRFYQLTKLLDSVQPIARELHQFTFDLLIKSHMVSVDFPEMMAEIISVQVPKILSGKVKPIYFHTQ
Method: VCaP and CWR22Rv1 (referred to as 22Rv1) cells were transduced with ARE-luciferase Cignal Lenti Pathway Reporter (Qiagen; Valencia, Calif.) and cultured as described above in the presence of 1 μg/mL puromycin. Following antibiotic selection, cells stably expressing ARE-luciferase were isolated, cloned and cultured to generate a stable ARE-reporter cell lines.
Androgen-dependent VCaP cells were made to stably express an androgen-response element luciferase reporter (VCaP-ARE-luc).

[3] = MTT cell viability assay, PrEC cells; settings: human, non-tumorigenic primary prostate epithelial cells (PrEC), similar range of doses, read-out: cell viability retained
Method: Cells were treated in the manner indicated below for the specified period of time. MTT assay was performed as described in Amin et al., Mol. Cancer Ther., 13:341-52 (2014).
To determine the effects of SH-I-125 on prostate cancer cell growth, 22Rv1 cells were treated with SH-I-125 and cell viability was measured after a period of 3 days. […]. In comparison, non-tumorigenic primary prostate epithelial cells (PrEC) retained 80% viability in the presence of a similar range of doses of SH-I-125, showing that tumorigenic cells are more susceptible to the growth inhibitory properties of SH-I-125 compared to non-tumorigenic cells (FIG. 8B). […] Staurosporine was used as a positive control for cell death induction in live and dead assays (FIG. 9C).

22Rv1-MDVR cells = assay: Cell viability (MTT), 22Rv1-MDVR cells; settings: MDV3100, ARN-509 10 μM, SH-I-125 range, 3 days
Method: Cell viability was measured using the MTT assay.

## COc1ccc2c(c1)[nH]c1c(C)c(OS(=O)(=O)c3cccc4ccccc34)ccc12 [SH-I-125, 7-methoxy-1-methyl-9H-carbazol-2-yl naphthalene-1-sulfonate]
AR [1]
  AR expression / nuclear localization: decreased AR nuclear localization
  PSA expression: decreased AR nuclear localization and PSA expression
AR [2]
  potency relative to mahanine on AR signaling (ARE-luc): more potent than mahanine
AR [2]; range of doses
  inhibition of AR transactivation (luciferase activity): comparable decline in luciferase activity
[3]
  viability at 3 days: 80%
22Rv1-MDVR cells
  cell growth / viability: effective in preventing the growth
